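48-hour exposure; five concentrations; linearly interpolated endpoints. GI50: concentration for 50% inhibition of growth. At the TGI there is no net growth.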
Assays:
Assay in all cases: NCI tumour cell line growth inhibition, 48 h
[1] = tested on: NCI/ADR-RES ovarian
[2] = tested on: ACHN renal
[3] = tested on: SF-268 CNS
[4] = tested on: SNB-19 CNS
[5] = tested on: A549 NSCLC
[6] = tested on: SK-MEL-5 melanoma
[7] = tested on: NCI-H460 lung
[8] = tested on: UO-31 renal
[9] = tested on: HOP-62 NSCLC
[10] = tested on: CCRF-CEM leukemia

SMILES | GI50 [1] [µM] | TGI [1] [µM] | GI50 [2] [µM] | TGI [2] [µM] | GI50 [3] [µM] | TGI [3] [µM] | GI50 [4] [µM] | TGI [4] [µM] | GI50 [5] [µM] | TGI [5] [µM] | GI50 [6] [µM] | TGI [6] [µM] | GI50 [7] [µM] | TGI [7] [µM] | GI50 [8] [µM] | TGI [8] [µM] | TGI [9] [µM] | TGI [10] [µM] | GI50 [9] [µM] | GI50 [10] [µM]
O=C(c1ccccc1)C(Br)C(Br)c1ccccc1 (centres undefined) | 2.92 | 9.55 | 1.86 | 3.38 | 9.37 | 24.8 | 12.7 | 25.7 | 18.3 | 39.2 | 12.6 | 25.6 | 13.8 | 29.5 | 1.85 | 3.87 |  |  |  | 
C/C(CC(=O)Nc1cccc([N+](=O)[O-])c1)=N\NC(=O)C[n+]1ccccc1 |  |  |  |  |  | > 100 |  |  |  | > 100 |  | > 100 |  | > 100 |  | > 100 | > 100 | > 100 |  | 
COc1ccc(OCC(O)CN2CCN(c3ccc(Cl)cc3)CC2)cc1 (centres undefined) | > 100 | > 100 | 65.9 | > 100 | 80.6 | > 100 | 77.7 | > 100 | > 100 | > 100 |  |  | > 100 | > 100 |  |  | > 100 | > 100 | 28.4 | > 100
c1ccc2c3c([nH]c2c1)C1C2CCCCN2C(c2ccncc2)N1CC3 (centres undefined) |  |  |  | > 100 |  |  |  | 65.3 |  | > 100 |  | > 100 |  | > 100 |  | 34.8 | > 100 | > 100 |  | 
CCCCCCCCCCCCCCCC(=O)OCC1OC(n2cc(F)c(=O)[nH]c2=O)C(NC(=O)N(CCCl)N=O)C(O)C1O (centres undefined) |  |  |  | 10.9 |  | 2.83 |  | 8.71 |  | 7.14 |  | 9.8 |  | 4.81 |  | 29.6 | 2.34 | 6.58 |  | 
COC(=O)CC1CC2(C(=O)OC)c3[nH]c4ccccc4c3CCN2C1=O (centres undefined) |  |  |  | > 100 |  | > 100 |  | > 100 |  | > 100 |  | > 100 |  | > 100 |  | > 100 | > 100 | > 100 |  | 
O=C(N/N=C/c1ccc(F)cc1)c1ccc(C(F)(F)F)nc1Nc1cccc(C(F)(F)F)c1 | 1.28 | 6.58 | 1.66 | 4.04 | 0.465 | 2.34 | 1.51 | 7.99 | 2.29 | 6.15 | 1.62 | 4.48 | 1.29 | 3.08 | 2.14 | 6.69 | 4.85 |  | 1.2 | 
O=C(C(=O)c1cc(Br)ccc1O)c1cc(Br)ccc1O | 3.36 | > 100 | 3.75 | 50 | 3.41 | 21.1 | 4.39 | > 100 | 4.16 | 22.3 |  |  |  |  | 1.97 | 6.51 | 34.9 | > 100 | 6.51 | 5.5
COc1ccc2c(c1)[n+](=O)c(C(C)=O)c(C)n2[O-] |  |  |  | > 100 |  | > 100 |  | > 100 |  | > 100 |  | > 100 |  | > 100 |  | > 100 | > 100 |  |  | 
COC(=O)C1CCC(=O)N1/C(C)=N/NC(=O)Nc1ccc(Cl)c(Cl)c1 (centres undefined) |  |  |  | > 100 |  | > 100 |  | > 100 |  | > 100 |  | > 100 |  | > 100 |  | > 100 | > 100 | > 100 |  | 
Clc1ccc2c(NCCCN3CCN(c4nc(N5CCOCC5)nc5ccccc45)CC3)ccnc2c1 | 2.23 | 4.73 |  |  | 2.21 | 5.51 |  |  |  |  | 1.73 | 3.12 | 1.91 | 3.84 |  |  |  | 5.73 |  | 1.8
O=C(OC[C@@H]1CO1)c1cccc2c(=O)c3ccccc3[nH]c12 | 0.253 | 2.08 | 0.107 | 0.305 | 0.172 | 1.01 | 0.505 | 5.51 | 0.468 | 5.68 | 0.21 | 0.473 | 0.38 | 1.75 |  |  | 3.45 | > 100 | 0.357 | 0.0896
N#CCCN(CCC#N)c1ccc(C=Nc2ccc(F)cc2)cc1 |  |  |  | > 100 |  | > 100 |  | > 100 |  | > 100 |  | > 100 |  | > 100 |  | > 100 | > 100 | > 100 |  | 
CCCCCCCCCCCCCCC(C)CCC(=O)O (centres undefined) |  |  |  | > 100 |  | > 100 |  | > 100 |  | > 100 |  | > 100 |  | > 100 |  |  | > 100 |  |  | 
CC1=CCN(c2ccccn2)OC1c1ccccc1 (centres undefined) |  |  |  | > 100 |  | > 100 |  | > 100 |  | > 100 |  |  |  | > 100 |  | > 100 | > 100 | > 100 |  | 
CCOc1ccccc1NC(=O)C1=C(C)NC(C)=C(C(=O)Nc2ccccc2OCC)C1c1ccc([N+](=O)[O-])cc1 |  |  |  | > 100 |  | > 100 |  | > 100 |  | > 100 |  |  |  | > 100 |  | > 100 | > 100 |  |  | 
O=C(/C=C(\[O-])c1ccccc1)CCCCCCC(=O)/C=C(\[O-])c1ccccc1.O=C(/C=C(\[O-])c1ccccc1)CCCCCCC(=O)/C=C(\[O-])c1ccccc1.O=C(/C=C(\[O-])c1ccccc1)CCCCCCC(=O)/C=C(\[O-])c1ccccc1.[Nd+3].[Nd+3] |  |  | > 50 | > 50 | > 50 | > 50 | > 50 | > 50 | > 50 | > 50 | > 50 | > 50 | > 50 | > 50 | > 50 | > 50 | > 50 |  | > 50 | 
CCCCC[C@@H](C/C=C/CCC(=O)NC/C(=C/Cl)[C@H]1C(=O)C(C)(C)C(=O)[C@@H](C)[C@@]1(C)O)OC | 20.8 | 41.3 | 18 | 32.6 | 17.6 | 34.6 | 20.3 | 42 | 16.2 | 33.3 | 17.3 | 32.1 | 17.7 | 35.1 | 15.4 | 28.8 |  | 15.7 |  | 3.27
